Experimental data published in ChEMBL document CHEMBL2346508, “Bifunctional inhibition of HIV-1 reverse transcriptase: a first step in designing a bifunctional triphosphate” (Bioorg Med Chem Lett, 2013).
The source made the active and inactive calls. No cut-off for these calls is given here.

How the values were obtained:
MT2 = test: Cytotoxicity against human MT2 cells after 5 days by MTT assay; format: cell-based; conditions: MT2, 120 h
[1] = system: Human immunodeficiency virus 1; test: Antiviral activity against HIV-1 infected un MT2 cells assessed as virus-induced cytopathicity after 5 days by MTT assay; format: functional, organism-based; conditions: Human immunodeficiency virus 1, MT2, 120 h
[2] = target: Human immunodeficiency virus type 1 reverse transcriptase (Human immunodeficiency virus 1) (UniProt Q72547); test: Inhibition of HIV-1 RT assessed as inhibition of annealing of D23/D36 primer/template at 150 uM by polyacrylamide denaturing gel-based incorporation assay

In the case of Cc1cn([C@H]2C=C[C@@H](CO)O2)c(=O)[nH]c1=O [STAVUDINE], the IC50 (MT2) is reported as > 100 µM and the EC50 [1] is reported as 2.2 µM.

CC(C)=CCN1Cc2c(OCCOCCOCCOCCOCCOCCOCCOCCO)ccc([N+](=O)[O-])c2NC[C@@H]1C was tested, and the IC50 (MT2) was > 100 µM and the EC50 [1] was 27 µM.

In the case of CC(C)=CCN1Cc2c(OCCOCCOCCOCCOCCOCCOC(=O)CCc3cn([C@H]4C=C[C@@H](CO)O4)c(=O)[nH]c3=O)ccc3[nH]c(=S)n(c23)C[C@@H]1C, the IC50 (MT2) is reported as > 100 µM and the EC50 [1] is reported as 100 µM.

CC(C)=CCN1Cc2c(OCCOCCOCCOCCOC(=O)CCc3cn([C@H]4C=C[C@@H](CO)O4)c(=O)[nH]c3=O)ccc3[nH]c(=S)n(c23)C[C@@H]1C was tested, and the IC50 (MT2) was > 100 µM and the EC50 [1] was 45 µM.

CC(C)=CCN1Cc2c(OCCOCCOCCOCCOCCOCCn3c(=O)ccn([C@H]4C=C[C@@H](CO)O4)c3=O)ccc3[nH]c(=S)n(c23)C[C@@H]1C showed an IC50 (MT2) of 38 µM and an EC50 [1] of 20 µM.

With CC(C)=CCN1Cc2c(OCCOCCOCCOCCOCCOCCOCCOCCOC(=O)CCc3cn([C@H]4C=C[C@@H](CO)O4)c(=O)[nH]c3=O)ccc3[nH]c(=S)n(c23)C[C@@H]1C the IC50 (MT2) was > 100 µM and the EC50 [1] was 120 µM.

With CC(C)=CCN1Cc2c(OCCOCCOCCOCCOCCOCCn3c(=O)ccn([C@H]4C=C[C@@H](COP(=O)(O)OP(=O)(O)OP(=O)(O)O)O4)c3=O)ccc3[nH]c(=S)n(c23)C[C@@H]1C the inhibition [2] was “inactive”.
